Source: PubChem BioAssay AID330 (DTP/NCI, 2004)
“And” between values parts separate entries of the source, which are not always exact repeats. Equal values may be shown once. Inconclusive results and toxic doses are left out. The calls were made as follows: active = survival T/C of 150% or more; inactive = T/C below 125% in these data.

Test system: P388 leukemia ip, CD2F1 mice, survival T/C
Experiment: NCI In Vivo Anticancer Drug Screen. Data for tumor model P388 Leukemia (intraperitoneal) in CD2F1 (CDF1) mice
Settings: endpoint: median survival time, higher = longer survival
Procedure, shortened: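 Mice carrying the transplanted tumor received test compound or vehicle. Survival was recorded in each group, and the value is the treated-group measurement divided by that of the vehicle-treated control group.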

Measured: T/C

COc1cc(NCc2ccc3nc(N)nc(N)c3c2C)cc(OC)c1OC
inactive: dose: 1.56 mg/kg/injection, schedule: Q01DX009 (ip), vehicle: Klucel (hydroxypropylcellulose) (HPC) 112 % of control | dose: 1.56 mg/kg/injection, schedule: Q01DX009 (ip), vehicle: clinical formulation 111 % of control | dose: 1.88 mg/kg/injection, schedule: Q01DX005 (ip), vehicle: Klucel (hydroxypropylcellulose) (HPC) 121 % of control | dose: 1.88 mg/kg/injection, schedule: Q01DX005 (ip), vehicle: clinical formulation 102 % of control | dose: 1.88 mg/kg/injection, schedule: Q01DX005 (iv), vehicle: clinical formulation 102 % of control | dose: 2.1 mg/kg/injection, schedule: Q01DX009 (ip), vehicle: water 116 % of control | dose: 2.5 mg/kg/injection, schedule: Q01DX009 (ip), vehicle: sodium bicarbonate 124 % of control | dose: 2.52 mg/kg/injection, schedule: Q01DX005 (iv), vehicle: water 103 % of control | dose: 3.12 mg/kg/injection, schedule: Q01DX009 (ip), vehicle: Klucel (hydroxypropylcellulose) (HPC) 124 % of control | dose: 3.12 mg/kg/injection, schedule: Q01DX009 (ip), vehicle: clinical formulation 109 % of control | dose: 3.75 mg/kg/injection, schedule: Q01DX005 (ip), vehicle: Klucel (hydroxypropylcellulose) (HPC) 124 % of control | dose: 3.75 mg/kg/injection, schedule: Q01DX005 (ip), vehicle: clinical formulation 100 % of control | dose: 3.75 mg/kg/injection, schedule: Q01DX005 (iv), vehicle: clinical formulation 103 % of control | dose: 4.19 mg/kg/injection, schedule: Q01DX009 (ip), vehicle: water 120 % of control | dose: 5.03 mg/kg/injection, schedule: Q01DX005 (iv), vehicle: water 101 % of control | dose: 6.25 mg/kg/injection, schedule: Q01DX009 (ip), vehicle: clinical formulation 109 % of control | dose: 7.5 mg/kg/injection, schedule: Q01DX005 (ip), vehicle: clinical formulation 100 % of control | dose: 7.5 mg/kg/injection, schedule: Q01DX005 (ip), vehicle: water 123 % of control | dose: 7.5 mg/kg/injection, schedule: Q01DX005 (iv), vehicle: clinical formulation 106 % of control | dose: 7.5 mg/kg/injection, schedule: Q01DX005 (iv), vehicle: water 117 % of control | dose: 7.5 mg/kg/injection, schedule: Q03HX008 (ip), vehicle: water 124 % of control | dose: 10.1 mg/kg/injection, schedule: Q01DX005 (iv), vehicle: water 106 % of control | dose: 12.5 mg/kg/injection, schedule: Q01DX009 (ip), vehicle: clinical formulation 111 % of control | dose: 12.5 mg/kg/injection, schedule: Q01DX009 (oral), vehicle: sodium bicarbonate 110 % of control and 111 % of control | dose: 13.0 mg/kg/injection, schedule: Q04DX002 (ip), vehicle: Klucel (hydroxypropylcellulose) (HPC) 120 % of control | dose: 15.0 mg/kg/injection, schedule: Q01DX005 (ip), vehicle: clinical formulation 103 % of control | dose: 15.0 mg/kg/injection, schedule: Q01DX005 (iv), vehicle: clinical formulation 102 % of control | dose: 15.0 mg/kg/injection, schedule: Q01DX005 (oral), vehicle: water 112 % of control | dose: 20.1 mg/kg/injection, schedule: Q01DX005 (iv), vehicle: water 120 % of control | dose: 25.0 mg/kg/injection, schedule: Q01DX009 (ip), vehicle: clinical formulation 109 % of control | dose: 25.0 mg/kg/injection, schedule: Q01DX009 (oral), vehicle: sodium bicarbonate 112 % of control | dose: 30.0 mg/kg/injection, schedule: Q01DX001 (ip), vehicle: water 108 % of control | dose: 30.0 mg/kg/injection, schedule: Q01DX001 (iv), vehicle: water 111 % of control | dose: 30.0 mg/kg/injection, schedule: Q01DX005 (ip), vehicle: clinical formulation 100 % of control | dose: 30.0 mg/kg/injection, schedule: Q01DX005 (iv), vehicle: clinical formulation 105 % of control | dose: 30.0 mg/kg/injection, schedule: Q04DX003 (ip), vehicle: water 123 % of control | dose: 40.0 mg/kg/injection, schedule: Q01DX009 (ip), vehicle: Klucel (hydroxypropylcellulose) (HPC) 102 % of control | dose: 50.0 mg/kg/injection, schedule: Q01DX009 (ip), vehicle: clinical formulation 118 % of control | dose: 60.0 mg/kg/injection, schedule: Q01DX001 (ip), vehicle: water 104 % of control | dose: 60.0 mg/kg/injection, schedule: Q01DX001 (iv), vehicle: water 113 % of control | dose: 60.0 mg/kg/injection, schedule: Q01DX001 (oral), vehicle: water 120 % of control | dose: 60.0 mg/kg/injection, schedule: Q01DX005 (ip), vehicle: clinical formulation 100 % of control | dose: 60.0 mg/kg/injection, schedule: Q03HX008 (ip), vehicle: water 120 % of control | dose: 60.0 mg/kg/injection, schedule: Q03HX024 (ip), vehicle: water 115 % of control | dose: 60.0 mg/kg/injection, schedule: Q04DX003 (ip), vehicle: water 115 % of control | dose: 80.0 mg/kg/injection, schedule: Q01DX005 (ip), vehicle: Klucel (hydroxypropylcellulose) (HPC) 96 % of control | dose: 100.0 mg/kg/injection, schedule: Q01DX005 (ip), vehicle: Klucel (hydroxypropylcellulose) (HPC) 116 % of control | dose: 100.0 mg/kg/injection, schedule: Q01DX009 (oral), vehicle: sodium bicarbonate 94 % of control | dose: 120.0 mg/kg/injection, schedule: Q01DX001 (ip), vehicle: water 106 % of control | dose: 120.0 mg/kg/injection, schedule: Q01DX001 (oral), vehicle: water 115 % of control | dose: 120.0 mg/kg/injection, schedule: Q04DX003 (ip), vehicle: water 118 % of control | dose: 200.0 mg/kg/injection, schedule: Q04DX003 (ip), vehicle: Klucel (hydroxypropylcellulose) (HPC) 103 % of control | dose: 240.0 mg/kg/injection, schedule: Q01DX001 (oral), vehicle: water 124 % of control
242 % of control and 91 % of control: dose: 40.0 mg/kg/injection, schedule: Q01DX009 (ip), vehicle: sodium bicarbonate
active: dose: 5.0 mg/kg/injection, schedule: Q01DX009 (ip), vehicle: sodium bicarbonate 154 % of control | dose: 7.2 mg/kg/injection, schedule: Q01DX009 (ip), vehicle: Klucel (hydroxypropylcellulose) (HPC) 154 % of control | dose: 7.5 mg/kg/injection, schedule: Q03HX024 (ip), vehicle: water 184 % of control | dose: 8.64 mg/kg/injection, schedule: Q01DX009 (ip), vehicle: Klucel (hydroxypropylcellulose) (HPC) 157 % of control | dose: 10.0 mg/kg/injection, schedule: Q01DX005 (ip), vehicle: Klucel (hydroxypropylcellulose) (HPC) 171 % of control | dose: 10.0 mg/kg/injection, schedule: Q01DX009 (ip), vehicle: sodium bicarbonate 171 % of control and 174 % of control | dose: 12.0 mg/kg/injection, schedule: Q01DX009 (ip), vehicle: Klucel (hydroxypropylcellulose) (HPC) 173 % of control | dose: 12.0 mg/kg/injection, schedule: Q03HX006 (ip), vehicle: Klucel (hydroxypropylcellulose) (HPC) 150 % of control | dose: 12.5 mg/kg/injection, schedule: Q01DX009 (ip), vehicle: Klucel (hydroxypropylcellulose) (HPC) 172 % of control | dose: 12.5 mg/kg/injection, schedule: Q04DX003 (ip), vehicle: Klucel (hydroxypropylcellulose) (HPC) 180 % of control | dose: 14.4 mg/kg/injection, schedule: Q01DX009 (ip), vehicle: Klucel (hydroxypropylcellulose) (HPC) 175 % of control | dose: 15.0 mg/kg/injection, schedule: Q01DX005 (ip), vehicle: Klucel (hydroxypropylcellulose) (HPC) 152 % of control | dose: 15.0 mg/kg/injection, schedule: Q01DX009 (ip), vehicle: water 153 % of control | dose: 16.8 mg/kg/injection, schedule: Q01DX009 (ip), vehicle: water 170 % of control | dose: 20.0 mg/kg/injection, schedule: Q01DX005 (ip), vehicle: Klucel (hydroxypropylcellulose) (HPC) 202 % of control | dose: 20.0 mg/kg/injection, schedule: Q01DX009 (ip), vehicle: Klucel (hydroxypropylcellulose) (HPC) 207 % of control | dose: 20.0 mg/kg/injection, schedule: Q01DX009 (ip), vehicle: sodium bicarbonate 174 % of control and 222 % of control | dose: 20.0 mg/kg/injection, schedule: Q03HX006 (ip), vehicle: Klucel (hydroxypropylcellulose) (HPC) 154 % of control | dose: 21.6 mg/kg/injection, schedule: Q01DX005 (ip), vehicle: Klucel (hydroxypropylcellulose) (HPC) 152 % of control | dose: 24.0 mg/kg/injection, schedule: Q01DX009 (ip), vehicle: Klucel (hydroxypropylcellulose) (HPC) 181 % of control | dose: 25.0 mg/kg/injection, schedule: Q01DX009 (ip), vehicle: Klucel (hydroxypropylcellulose) (HPC) 200 % of control | dose: 25.0 mg/kg/injection, schedule: Q04DX003 (ip), vehicle: Klucel (hydroxypropylcellulose) (HPC) 192 % of control | dose: 30.0 mg/kg/injection, schedule: Q01DX005 (ip), vehicle: Klucel (hydroxypropylcellulose) (HPC) 189 % of control | dose: 30.0 mg/kg/injection, schedule: Q01DX009 (ip), vehicle: water 170 % of control | dose: 30.0 mg/kg/injection, schedule: Q01DX009 (oral), vehicle: water 161 % of control | dose: 33.3 mg/kg/injection, schedule: Q01DX009 (ip), vehicle: Klucel (hydroxypropylcellulose) (HPC) 218 % of control | dose: 33.3 mg/kg/injection, schedule: Q03HX006 (ip), vehicle: Klucel (hydroxypropylcellulose) (HPC) 159 % of control | dose: 33.6 mg/kg/injection, schedule: Q01DX009 (ip), vehicle: water 175 % of control | dose: 36.0 mg/kg/injection, schedule: Q01DX005 (ip), vehicle: Klucel (hydroxypropylcellulose) (HPC) 195 % of control | dose: 40.0 mg/kg/injection, schedule: Q01DX005 (ip), vehicle: Klucel (hydroxypropylcellulose) (HPC) 240 % of control | dose: 50.0 mg/kg/injection, schedule: Q01DX009 (ip), vehicle: Klucel (hydroxypropylcellulose) (HPC) 225 % of control | dose: 50.0 mg/kg/injection, schedule: Q01DX009 (oral), vehicle: sodium bicarbonate 191 % of control | dose: 50.0 mg/kg/injection, schedule: Q04DX003 (ip), vehicle: Klucel (hydroxypropylcellulose) (HPC) 201 % of control | dose: 60.0 mg/kg/injection, schedule: Q01DX005 (ip), vehicle: Klucel (hydroxypropylcellulose) (HPC) 176 % of control and 198 % of control | dose: 60.0 mg/kg/injection, schedule: Q01DX005 (oral), vehicle: water 153 % of control | dose: 60.0 mg/kg/injection, schedule: Q01DX009 (ip), vehicle: water 170 % of control | dose: 60.0 mg/kg/injection, schedule: Q04DX002 (ip), vehicle: Klucel (hydroxypropylcellulose) (HPC) 151 % of control | dose: 100.0 mg/kg/injection, schedule: Q04DX002 (ip), vehicle: Klucel (hydroxypropylcellulose) (HPC) 211 % of control | dose: 100.0 mg/kg/injection, schedule: Q04DX003 (ip), vehicle: Klucel (hydroxypropylcellulose) (HPC) 230 % of control | dose: 120.0 mg/kg/injection, schedule: Q01DX005 (oral), vehicle: water 170 % of control | dose: 480.0 mg/kg/injection, schedule: Q01DX001 (oral), vehicle: water 157 % of control
